Experimental data published in patent US6162803A, “Indol-3-yl-cyclohexyl amine derivatives for the treatment of depression” (American Home Products Corp., priority 1999, dated 2000).

Experiments:
serotonin transporter = biological target: T1, serotonin transporter (Rattus norvegicus, UniProt P31652); experiment: [3H]-paroxetine binding, affinity for the serotonin transporter (rat frontal cortical membranes); design: species or system male Sprague-Dawley rats; conditions: 3H-paroxetine (0.1 nM); for Ki: 60 min at 25° C., read-out: Ki (nM) ST [^3 H]paroxetine
T1 construct: frontal cortical membranes prepared from male Sprague-Dawley rats; from tissue; host or cells: frontal cortical membranes of male Sprague-Dawley rats
T1 sequence (P31652 whole entry): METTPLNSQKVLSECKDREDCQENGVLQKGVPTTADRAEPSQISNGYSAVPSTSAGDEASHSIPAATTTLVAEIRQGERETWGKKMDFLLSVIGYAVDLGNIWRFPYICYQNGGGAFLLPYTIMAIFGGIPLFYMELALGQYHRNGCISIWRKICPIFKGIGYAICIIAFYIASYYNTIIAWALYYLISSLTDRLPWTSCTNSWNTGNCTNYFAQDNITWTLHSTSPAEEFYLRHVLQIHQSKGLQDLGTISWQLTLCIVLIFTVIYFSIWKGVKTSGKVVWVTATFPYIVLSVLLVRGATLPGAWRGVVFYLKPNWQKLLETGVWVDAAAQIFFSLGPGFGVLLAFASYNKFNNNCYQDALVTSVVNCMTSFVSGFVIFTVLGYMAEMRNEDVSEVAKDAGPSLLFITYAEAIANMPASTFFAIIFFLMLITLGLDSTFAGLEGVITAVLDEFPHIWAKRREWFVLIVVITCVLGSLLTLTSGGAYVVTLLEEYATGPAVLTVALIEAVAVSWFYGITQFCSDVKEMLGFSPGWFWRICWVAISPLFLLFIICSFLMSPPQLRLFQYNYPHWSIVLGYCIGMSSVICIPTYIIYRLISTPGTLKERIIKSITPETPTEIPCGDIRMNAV
Protocol: A protocol similar to that used by Cheetham et al., Neuropharmacol., 32:737 (1993) was used to determine the affinity of compounds for the serotonin transporter. Briefly, frontal cortical membranes prepared from male Sprague-Dawley rats were incubated with ^3 H-paroxetine (0.1 nM) for 60 min at 25° C. All tubes also contained either vehicle, test compound (one to eight concentrations), or a saturating concentration of fluoxetine (10 μM) to define […]. All reactions are terminated by the addition of ice cold Tris buffer followed by rapid filtration using a Tom Tech filtration device to separate bound from free ^3 H-paroxetine. Bound radioactivity was quantitated using a Wallac 1205 Beta Plate® counter. Nonlinear regression analysis was used to determine IC50 values which were converted to Ki values using the method of Cheng and Prusoff, Biochem. Pharmacol., 22:3099 (1973); Ki=IC50/((Radioligand conc.)/(1+KD)).

human 5-HT1A receptor = biological target: T2, human 5-HT1A receptor (Homo sapiens, UniProt P08908); experiment: [3H]8-OH-DPAT competition binding at human 5-HT1A receptor (5-HT1A.CHO cell membranes); conditions: [3H]8-OH-DPAT 1.5 nM; for inhibition at 1 µM: 0.5 h
T2 construct: expressed in transfected cells; host or cells: Chinese hamster ovary cells (5-HT1A.CHO), membranes
T2 sequence (P08908 1-422): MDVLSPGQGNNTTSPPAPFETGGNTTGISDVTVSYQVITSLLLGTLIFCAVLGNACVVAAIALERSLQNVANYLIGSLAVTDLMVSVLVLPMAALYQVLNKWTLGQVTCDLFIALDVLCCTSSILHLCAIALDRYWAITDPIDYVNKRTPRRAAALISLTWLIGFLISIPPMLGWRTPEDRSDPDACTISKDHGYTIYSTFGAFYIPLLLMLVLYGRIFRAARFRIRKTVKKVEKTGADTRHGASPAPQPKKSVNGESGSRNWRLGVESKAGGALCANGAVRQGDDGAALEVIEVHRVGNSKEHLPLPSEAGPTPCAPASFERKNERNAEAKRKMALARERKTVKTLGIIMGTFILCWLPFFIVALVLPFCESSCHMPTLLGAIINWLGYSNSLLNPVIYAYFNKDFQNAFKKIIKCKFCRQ
Protocol: The PCR cloning of the human 5-HT1A receptor subtype from a human genomic library has been described previously Chanda et al., Mol. Pharmacol., 43:516 (1993). A stable Chinese hamster ovary cell line expressing the human 5-HT1A receptor subtype (5-HT1A.CHO cells) was employed throughout this study. Cells were maintained in DMEM supplemented with 10% foetal calf serum, non-essential amino acids and penicillin/streptomycin.
Cells were grown to 95-100% confluency as a monolayer before membranes were harvested for binding studies. Cells were gently scraped from the culture plates, transferred to centrifuge tubes, and washed twice by centrifugation (2000 rpm for 10 min., 4° C.) in buffer (50 mM Tris; pH 7.5). The resulting pellets were aliquoted and placed at -80° C. On the day of assay, the cells were thawed on ice, and resuspended in buffer. Studies were conducted using [^3 H]8-OH-DPAT as the radioligand. The binding assay was performed in 96 well microtiter plates in a final total volume of 250 μL of buffer. Competition experiments were performed by using 7 concentrations of unlabelled drug and a final ligand concentration of 1.5 nM. Non-specific binding was determined in the presence of 10 μM 5HT. Saturation analysis was conducted by using [^3 H]8-OH-DPAT at concentrations ranging from 0.3-30 nM. Following a 30 minute incubation at room temperature, the reaction was terminated by the addition of ice cold buffer and rapid filtration using a M-96 Brandel Cell Harvester (Gaithersburg, Md) through a GF/B filter presoaked for 30 minutes in 0.5% polyethyleneimine.

Row | Structure (SMILES) | Ki (serotonin transporter) | inhibition at 1 µM (human 5-HT1A receptor) | Ki (human 5-HT1A receptor; 30 minute incubation at room temperature) | inhibition at 1 µM (serotonin transporter; 1 h, @ 1 μM, read-out: ST [^3 H]paroxetine, % @ 1 μM)
1 | Fc1ccc2[nH]cc([C@H]3CC[C@H](NCC4CNc5ccccc5O4)CC3)c2c1 (relative stereo) [1 (trans), (3,4-Dihydro-benzo[1,4]oxazine-2-ylmethyl)-[trans-4-(5-fluoro-1H-indol-3-yl)-cyclohexyl]-amine] | 24 nM | 44% | – | –
2 | Fc1ccc2[nH]cc([C@H]3CC[C@@H](NCC4CNc5ccccc5O4)CC3)c2c1 (stereo partly drawn) [1 (cis), (3,4-Dihydro-benzo[1,4]oxazine-2-ylmethyl)-[cis-4-(5-floro-1H-indol-3-yl)-cyclohexyl]-amine] | 44 nM | – | 2430 nM | –
3 | Fc1ccc2[nH]cc([C@H]3CC[C@H](NCC4COc5ccccc5N4)CC3)c2c1 (relative stereo) [2 (trans), (3,4-Dihydro-benzo[1,4]oxazine-3-ylmethyl)-[trans-4-(5-fluoro-1H-indol-3-yl)-cyclohexyl]-amine] | 10 nM | 20% | – | –
4 | Fc1ccc2[nH]cc([C@H]3CC[C@@H](NCC4COc5ccccc5N4)CC3)c2c1 (relative stereo) [2 (cis), (3,4-Dihydro-benzo[1,4]oxazine-3-ylmethyl)-[cis-4-(5-fluoro-1H-indol-3-yl)-cyclohexyl]-amine] | – | 9% | – | 34%
